Where two headings read alike, the source gives them in different places.
Columns and labels:
[1] = system: cotton pellet induced granuloma; test: cotton pellet induced granuloma test; type: in vivo
Excerpt: (§1) When tested on a conventional cotton pellet induced granuloma test the results shown hereafter were obtained. In these tests hydrocortisone (HC) was used as a positive control.

[2] = overt toxic effects during testing (Demonstration 2); type: in vivo
Excerpt: as §1

[3] = system: phenylquinone induced writhing; test: phenylquinone induced writhing test for analgesic activity; type: in vivo; conditions: oral, mice; for ED50: Mus musculus
Excerpt: a. When tested on a conventional phenylquinone induced writhing test for analgesic activity, the compound of Example 1 and tolmetin produced the following ED50 values when administered orally to mice: […]

stomachs = test: gastric erosion test after oral dosing; type: in vivo, rats; conditions: for No. of Animals Showing Erosions: groups of 10 rats, 4 hour contact time
Description: b. Groups of 10 rats were starved overnight and then dosed orally with the test compound suspended in 0.7% methylcellulose. After a 4 hour contact time the animals were killed and the stomachs removed, inflated with 0.9% saline, cut open after 30 minutes and examined for erosions. The following results, expressed as the number of animals in each group showing damage, were obtained: […]

[4] = system: carrageenin induced oedema; test: carrageenin induced oedema test for anti-inflammatory activity; type: in vivo; conditions: Rattus norvegicus; per oral in rats; read-out: dose at which active (anti-inflammatory)
Description: c. When tested on a conventional carrageenin induced oedema test foranti-inflammatory activity, the compound of Example 1 was classed as active at 10 mg/kg per oral in rats (as compared to about 5 mg/kg for tolmetin).

[5] = in vivo
[6] = J. Pharmacol. Exptl. Therap. 1973, 185, 127-138; cited from earlier work
rats = test: toxicity observations during testing in rats; type: in vivo; conditions: up to 100 mg/kg per day for 6 days

Q: For `C[C@]12CCC(=O)C=C1CC[C@@H]1[C@@H]2[C@@H](O)C[C@@]2(C)[C@H]1CC[C@]2(O)C(=O)CO` [HC, hydrocortisone, reference compound], which “Inhibition (cotton pellet granuloma)” value ([1]; 10 mg/kg) is on record?
A: 43%

Q: With `CC(=O)CCc1ccc(C(=O)c2cccs2)n1C` [Example 4, 4-(1-Methyl-5-thien-2'-oyl-2-pyrryl)butan-2-one] as the molecule, how does the drug-induced lethalities ([2]; during testing) read?
A: no drug-induced lethalities were observed

Q: What about the body weight gain ([2]; in vivo) of the same molecule?
A: no reduction in body weight gain was observed

Q: And the overt toxic effects ([2]; in vivo)?
A: not found to exhibit any overt toxic effects

Q: What about the thymus weight ([2]; in vivo) of the same molecule?
A: no change in thymus weight was observed

Q: And the “Inhibition (cotton pellet granuloma)” value ([1]; 10 mg/kg)?
A: 24%

Q: With `CC(=O)CCc1ccc(C(=O)c2ccc(Cl)cc2)n1C` [Example 3, 4-(1-Methyl-5-p-chlorobenzoyl-2-pyrryl)butan-2-one] as the molecule, how does the drug-induced lethalities ([2]; during testing) read?
A: no drug-induced lethalities were observed

Q: And the overt toxic effects ([2]; during testing)?
A: not found to exhibit any overt toxic effects

Q: What about the body weight gain ([2]; in vivo) of the same molecule?
A: no reduction in body weight gain was observed

Q: What about the thymus weight ([2]; in vivo) of the same molecule?
A: no change in thymus weight was observed

Q: What about the “Inhibition (cotton pellet granuloma)” value ([1]; 10 mg/kg) of the same molecule?
A: 42%

Q: Which drug-induced lethalities ([2]; during testing) does the source give for `Cc1ccc(C(=O)c2ccc(CCC3(C)OCCO3)n2C)cc1` [Example 7, 2-Methyl-2-[2-(1-methyl-5-p-toluoyl-2-pyrryl)ethyl]-1,3-dioxolane] here?
A: no drug-induced lethalities were observed

Q: And the overt toxic effects ([2]; during testing)?
A: not found to exhibit any overt toxic effects

Q: And the body weight gain ([2]; in vivo)?
A: no reduction in body weight gain was observed

Q: And the thymus weight ([2]; in vivo)?
A: no change in thymus weight was observed

Q: What about the “Inhibition (cotton pellet granuloma)” value ([1]; 50 mg/kg) of the same molecule?
A: 43%

Q: Which results are given for `CC(=O)OC(C)CCc1ccc(C(=O)c2ccc(C)cc2)n1C` (centres unmarked) [Example 6, 2-Acetoxy-4-(1-methyl-5-p-toluoyl-2-pyrryl)butane]?
A: drug-induced lethalities ([2]; during testing): no drug-induced lethalities were observed; overt toxic effects ([2]; during testing): not found to exhibit any overt toxic effects; body weight gain ([2]; in vivo): no reduction in body weight gain was observed; thymus weight ([2]; in vivo): no change in thymus weight was observed; Inhibition (cotton pellet granuloma) ([1]; 50 mg/kg): 34%

Q: Which results are given for `Cc1ccc(C(=O)c2ccc(CC(=O)O)n2C)cc1` [Tolmetin]?
A: ED50 ([3]; Test A, read-out: ED50, Test A): 4.3 mg/kg; ED50 ([3]; Test B, read-out: ED50, Test B): 2.3 mg/kg; No. of Animals Showing Erosions (stomachs; 10 mg/kg oral): 2 No. of Animals; No. of Animals Showing Erosions (stomachs; 30 mg/kg oral): 6 No. of Animals; No. of Animals Showing Erosions (stomachs; 90 mg/kg oral): 10 No. of Animals; gastric irritancy relative to the compound of Example 1 (stomachs; oral, rats, "probably at least"): at least 10 times; minimal effective dose [4]: ~5 mg/kg; gastric irritancy [5]: causes gastric irritancy in test animals at doses not greatly exceeding the therapeutic dose; anti-inflammatory activity [6]: possess anti-inflammatory activity

Q: Which ED50 ([3]; Test A, read-out: ED50, Test A) does the source give for `CC(=O)CCc1ccc(C(=O)c2ccc(C)cc2)n1C` [Example 1, 4-(1-Methyl-5-p-toluoyl-2-pyrryl)butan-2-one] here?
A: 6.7 mg/kg

Q: And the ED50 ([3]; Test B, read-out: ED50, Test B)?
A: 5.3 mg/kg

Q: What about the “analgesic potency relative to tolmetin” value ([3]; from ED50 values) of the same molecule?
A: about half as potent as tolmetin

Q: What about the “No. of Animals Showing Erosions” value (stomachs; 30 mg/kg oral) of the same molecule?
A: 0 No. of Animals

Q: And the “No. of Animals Showing Erosions” value (stomachs; 90 mg/kg oral)?
A: 1 No. of Animals

Q: And the “No. of Animals Showing Erosions” value (stomachs; 270 mg/kg oral)?
A: 1 No. of Animals

Q: And the minimal effective dose [4]?
A: 10 mg/kg

Q: What about the drug-induced lethalities (rats) of the same molecule?
A: No drug-induced lethalities have been observed

Reference: US4200645A, “Pyrrole derivatives” (Beecham Group Limited, priority 1977, dated 1980)
